Results from US7265227B2, “Piperidine derivatives useful as modulators of chemokine receptor activity” (AstraZeneca AB, priority 2001, dated 2007).

Legend:
[1] = molecular target: T1, H1 (Cavia porcellus, UniProt P31389); experiment: Guinea-pig isolated trachea (histamine concentration effect curves); details: guinea-pig tracheal rings; histamine E/[A] curve after 60 minutes incubation with test compound
T1 construct: the trachea was cut into six ring segments each three cartilage bands wide and then suspended in 20 ml organ baths; from tissue; host or cells: guinea-pig isolated trachea (Dunkin-Hartley)
T1 sequence (P31389 whole entry): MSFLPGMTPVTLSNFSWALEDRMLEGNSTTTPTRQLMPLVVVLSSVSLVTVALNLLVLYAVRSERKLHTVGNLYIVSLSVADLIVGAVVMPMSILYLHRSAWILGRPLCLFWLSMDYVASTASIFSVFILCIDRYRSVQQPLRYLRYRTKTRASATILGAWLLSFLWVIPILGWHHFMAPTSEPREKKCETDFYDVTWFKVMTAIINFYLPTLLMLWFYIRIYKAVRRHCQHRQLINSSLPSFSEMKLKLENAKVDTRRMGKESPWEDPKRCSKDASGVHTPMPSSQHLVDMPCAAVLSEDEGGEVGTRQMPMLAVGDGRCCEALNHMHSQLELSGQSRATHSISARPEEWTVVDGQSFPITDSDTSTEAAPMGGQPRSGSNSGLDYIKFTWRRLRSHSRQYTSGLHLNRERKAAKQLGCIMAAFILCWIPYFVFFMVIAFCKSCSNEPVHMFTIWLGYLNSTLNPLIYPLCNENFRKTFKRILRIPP
Protocol: Guinea-pig Isolated Trachea
(See for example, Harrison, R. W. S., Carswell, H. & Young, J. M. (1984) European J. Pharmacol., 106, 405-409.)
Male albino Dunkin-Hartley guinea-pigs (250 g) were killed by cervical dislocation and the whole trachea removed. After clearing the adherent connective tissue, the trachea was cut into six ring segments each three cartilage bands wide and then suspended in 20 ml organ baths containing Krebs-Henseleit solution of the following composition (MM): NaCl 117.6, NaH2PO4 0.9, NaHCO3 25.0, MgSO4 1.2, KCl 5.4, CaCl2 2.6 and glucose 11.1. The buffer was maintained at 37° C. and gassed with 5% CO2 in oxygen. Indomethacin (2.8 μM) was added to the Krebs solution to prevent development of smooth muscle tone due to the synthesis of cyclo-oxygenase products. […] Changes in isometric force were recorded on 2-channel Sekonic flat bed chart recorders. […]
Contraction responses were recorded as a percentage of the first curve maximum. […]
Experimental E/[A] curve data were analysed for the purposes of estimating the potencies (p[A50] values) of histamine in the absence and presence of the test compound. Affinity (pA2) values of test compounds were subsequently calculated using the following equation: log(r−1)=log[B]+pA2 where r=[A]50 in presence of test compound/[A]50 in absence of antagonist and [B] is the concentration of test compound.

[2] = tested on: eotaxin mediated human eosinophil chemotaxis; experiment: Human eosinophil chemotaxis; type: cell-based; details: human eosinophils from peripheral blood; eotaxin 0.1 to 100 nM; 1 hr at 37° C.
Protocol: Human Eosinophil Chemotaxis
Human eosinophils were isolated from EDTA anticoagulated peripheral blood as previously described (Hansel et al., J. Immunol. Methods, 1991, 145, 105-110). The cells were resuspended at 10×10^6 ml^−1 in RPMI containing 200 IU/ml penicillin, 200 μg/ml streptomycin sulfate and supplemented with 10% HIFCS, at room temperature.
Eosinophils (700 μl) were pre-incubated for 15 mins at 37° C. with 7 μl of either vehicle or compound (100× required final concentration in 10% DMSO). The chemotaxis plate (ChemoTx, 3μ, pore, Neuroprobe) was loaded by adding 28 μl of a concentration of eotaxin (0.1 to 100 nM) containing a concentration of a compound according to the Examples or solvent to the lower wells of the chemotaxis plate. The filter was then placed over the wells and 25 μl of eosinophil suspension were added to the top of the filter. The plate was incubated for 1 hr at 37° C. in a humidified incubator with a 95% air/5% CO2 atmosphere to allow chemotaxis.
The medium, containing cells that had not migrated, was carefully aspirated from above the filter and discarded. The filter was washed once with phosphate buffered saline (PBS) containing 5 mM EDTA to remove any adherent cells. […] The number of eosinophils migrating was quantified according to the method of Strath et al., J. Immunol. […]

Row | melting point [°C] | H1 antagonism [1] | Structure (SMILES) | antagonism of the eotaxin mediated human eosinophil chemotaxis [2]
1 | 237 to 239 |  | O=C(NS(=O)(=O)CCN1CCC(Oc2ccc(Cl)c(Cl)c2)CC1)c1ccccc1Cl [Example 19, N-(2-Chlorobenzoyl)-4-(3,4-dichlorophenoxy)-1-piperidineethanesulfonamide] | 
2 | 177 to 179 |  | Cc1ccc(S(=O)(=O)NC(=O)CCN2CCC(Oc3ccc(Cl)c(Cl)c3)CC2)cc1 [Example 20, N-[3-[4-(3,4-dichlorophenoxy)-1-piperidinyl]-1-oxopropyl]4-methyl-benzenesulfonamide] | 
3 | 179.6 to 180.3 | H1 antagonist | Cc1ccc(S(=O)(=O)NC(=O)NCCN2CCC(Oc3ccc(Cl)c(Cl)c3)CC2)cc1 [Example 1, N-[[[2-[4-(3,4-dichlorophenoxy)-1-piperidinyl]ethyl]amino]carbonyl]-4-methyl-benzenesulfonamide] | antagonist
4 | 93 to 106 |  | O=C(NS(=O)(=O)NCCCN1CCC(Oc2ccc(Cl)c(Cl)c2)CC1)c1ccccc1 [Example 18, N-benzoyl-N′-[3-[4-(3,4-dichlorophenoxy)-1-piperidinyl]propyl]-sulfamide] | 
